# From ChEMBL document CHEMBL1147164, “Synthesis, stereochemistry and antimicrobial evaluation of some N-morpholinoacetyl-2,6-diarylpiperidin-4-ones” (2007)
# The source made the active and inactive calls. No cut-off for these calls is given here.
# Columns and labels:
# [1] = tested on: Rhizopus; assay: Antifungal activity against Rhizopus sp. after 72 to 96 hrs by twofold serial dilution method; type: functional
# [2] = tested on: Aspergillus niger; assay: Antifungal activity against Aspergillus niger after 72 to 96 hrs by twofold serial dilution method; type: functional
# [3] = tested on: Aspergillus flavus; assay: Antifungal activity against Aspergillus flavus after 72 to 96 hrs by twofold serial dilution method; type: functional
# [4] = tested on: Candida albicans; assay: Antifungal activity against Candida albicans after 72 to 96 hrs by twofold serial dilution method; type: functional
# [5] = tested on: Candida albicans; assay: Antifungal activity against Candida albicans at 200 ug/ml after 72 to 96 hrs by twofold serial dilution method; type: functional, organism-based
# [6] = tested on: Staphylococcus aureus; assay: Antibacterial activity against Staphylococcus aureus after 24 hrs by twofold serial dilution method; type: functional
# [7] = tested on: Salmonella typhi; assay: Antibacterial activity against Salmonella typhi after 24 hrs by twofold serial dilution method; type: functional, Salmonella enterica subsp. enterica serovar Typhi; conditions: Salmonella enterica
# [8] = tested on: Pseudomonas aeruginosa; assay: Antibacterial activity against Pseudomonas aeruginosa after 24 hrs by twofold serial dilution method; type: functional
# [9] = tested on: Aspergillus flavus; assay: Antifungal activity against Aspergillus flavus at 200 ug/ml after 72 to 96 hrs by twofold serial dilution method; type: functional, organism-based
# [10] = tested on: Escherichia coli; assay: Antibacterial activity against Escherichia coli at 200 ug/ml after 24 hrs by twofold serial dilution method; type: functional, organism-based
# [11] = tested on: Escherichia coli; assay: Antibacterial activity against Escherichia coli after 24 hrs by twofold serial dilution method; type: functional
# [12] = tested on: Salmonella typhi; assay: Antibacterial activity against Salmonella typhi at 200 ug/ml after 24 hrs by twofold serial dilution method; type: functional, organism-based; conditions: Salmonella enterica subsp. enterica serovar Typhi
SMILES,MIC [1] [µg/mL],MIC [2] [µg/mL],MIC [3] [µg/mL],MIC [4] [µg/mL],Activity [5],MIC [6] [µg/mL],MIC [7] [µg/mL],MIC [8] [µg/mL],Activity [9],Activity [10],MIC [11] [µg/mL],Activity [12]
C[C@@H]1[C@H](O)[C@@H](C)/C=C/C=C/C=C/C=C/C=C/C=C/C=C/[C@H](O[C@@H]2O[C@H](C)[C@@H](O)[C@H](N)[C@@H]2O)C[C@@H]2O[C@](O)(C[C@@H](O)C[C@@H](O)[C@H](O)CC[C@@H](O)C[C@@H](O)CC(=O)O[C@H]1C)C[C@H](O)[C@H]2C(=O)O [AMPHOTERICIN B],25,50,50,25,,,,,,,,
O=C1CC(c2ccccc2)N(C(=O)CN2CCOCC2)C(c2ccccc2)C1 (stereo not drawn),100,200,,,inactive,200,100,100,inactive,inactive,,
Cc1ccc(C2C(C)C(=O)C(C)C(c3ccc(C)cc3)N2C(=O)CN2CCOCC2)cc1 (stereo not drawn),25,50,25,50,,50,6.25,6.25,,,25,
CC1C(=O)C(C)C(c2ccc(Cl)cc2)N(C(=O)CN2CCOCC2)C1c1ccc(Cl)cc1 (stereo not drawn),25,25,6.25,6.25,,25,100,50,,,25,
CC(C)C1C(=O)CC(c2ccccc2)N(C(=O)CN2CCOCC2)C1c1ccccc1 (stereo not drawn),25,50,100,50,,100,200,50,,,100,
COc1ccc(C2C(C)C(=O)C(C)C(c3ccc(OC)cc3)N2C(=O)CN2CCOCC2)cc1 (stereo not drawn),50,50,100,100,,6.25,25,12.5,,,12.5,
CC1C(=O)CC(c2ccccc2)N(C(=O)CN2CCOCC2)C1c1ccccc1 (stereo not drawn),100,50,50,,inactive,200,,50,,,100,inactive
CCC1C(=O)CC(c2ccccc2)N(C(=O)CN2CCOCC2)C1c1ccccc1 (stereo not drawn),200,100,100,100,,50,100,25,,,50,
O=C(O)c1cn(C2CC2)c2cc(N3CCNCC3)c(F)cc2c1=O [CIPROFLOXACIN],,,,,,,50,,,,25,
COc1ccc(C2CC(=O)C(C)C(c3ccc(OC)cc3)N2C(=O)CN2CCOCC2)cc1 (stereo not drawn),6.25,50,12.5,25,,50,50,25,,,100,
CC1C(=O)C(C)C(c2ccccc2)N(C(=O)CN2CCOCC2)C1c1ccccc1 (stereo not drawn),12.5,25,50,50,,50,50,25,,,100,
